# Experimental data from patent US5525625A (priority 1995, dated 1996).
# Assays:
# 3T3-L1 adipocyte cells [1] = test: Insulin-stimulated synthesis of lipid; type: cell-based, murine; conditions: 10 μM concentration
# [2] = tested on: Protein kinase C (rat brain homogenate c-PKC mixture); test: Kinase selectivity: Protein kinase C; type: biochemical; conditions: 50 μM concentration
# K562 [3] = test: Growth in soft-agar, K562; type: cell-based; conditions: Homo sapiens; K562, anchorage independent (soft agar clonogenicity)
# Description: (§1) Cells were seeded into 35-mm dishes at 5 to 10,000 cells/dish using growth medium containing 0.3% agar. After chilling to solidify the agar, cells were transfered to a 37° C. incubator. After 7 to 10 days growth, visible colonies were manually enumerated with the aid of a dissecting microscope.
# RSV/RAT-1 [4] = test: Growth in soft-agar, RSV/RAT-1; type: cell-based; conditions: read-out: Agar Growth IC50
# Description: as §1
# K-Ras/NRK [5] = test: Growth in soft-agar, K-Ras/NRK; type: cell-based; conditions: anchorage independent (soft agar clonogenicity)
# Description: as §1
# RSV/RAT-1 [6] = test: Monolayer growth, RSV/RAT-1; type: cell-based; conditions: read-out: Monolayer Growth IC50
# Description: (§2) Cells were plated into multi-well plates at 10 to 20,000 cells/mL. Forty-eight hours after seeding, compounds were added to the cell growth medium and incubation was continued for 2 additional days. Cells were then removed from the wells by incubation with trypsin and enumerated with a Coulter counter. Growth in soft-agar.
# [7] = target: NGFR (trk-A) Tyrosine kinase (Homo sapiens, UniProt P04629); test: Kinase selectivity: NGFR (trk-A) Tyrosine kinase; type: biochemical; conditions: 50 μM concentration
# Sequence of NGFR (trk-A) Tyrosine kinase (P04629 33-796, species assumed): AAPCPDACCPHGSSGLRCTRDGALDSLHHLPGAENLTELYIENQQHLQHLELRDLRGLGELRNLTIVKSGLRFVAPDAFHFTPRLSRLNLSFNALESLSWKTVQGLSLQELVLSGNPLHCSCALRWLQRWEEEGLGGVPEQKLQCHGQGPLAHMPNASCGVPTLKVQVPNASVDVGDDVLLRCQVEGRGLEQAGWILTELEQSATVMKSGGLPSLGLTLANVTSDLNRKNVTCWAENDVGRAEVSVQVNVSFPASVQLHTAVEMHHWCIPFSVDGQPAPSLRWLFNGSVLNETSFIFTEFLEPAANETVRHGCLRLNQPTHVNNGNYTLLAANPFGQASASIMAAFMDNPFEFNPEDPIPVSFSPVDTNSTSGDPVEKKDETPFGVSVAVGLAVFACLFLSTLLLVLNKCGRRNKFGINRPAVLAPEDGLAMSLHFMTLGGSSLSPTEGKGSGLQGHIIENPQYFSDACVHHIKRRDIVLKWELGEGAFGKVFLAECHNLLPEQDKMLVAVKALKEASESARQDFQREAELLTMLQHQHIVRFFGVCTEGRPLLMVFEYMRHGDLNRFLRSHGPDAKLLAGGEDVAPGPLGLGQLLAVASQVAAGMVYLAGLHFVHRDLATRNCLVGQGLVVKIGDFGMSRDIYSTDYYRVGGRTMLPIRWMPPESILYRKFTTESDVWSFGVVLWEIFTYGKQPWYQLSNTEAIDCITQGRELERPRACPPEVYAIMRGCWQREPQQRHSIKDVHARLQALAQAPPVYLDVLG
# EGFR Tyrosine kinase = EGFR Tyrosine kinase (Homo sapiens, UniProt P00533); test: Kinase selectivity: EGFR Tyrosine kinase; type: biochemical; conditions: 50 μM concentration
# Sequence of EGFR Tyrosine kinase (P00533 25-1210): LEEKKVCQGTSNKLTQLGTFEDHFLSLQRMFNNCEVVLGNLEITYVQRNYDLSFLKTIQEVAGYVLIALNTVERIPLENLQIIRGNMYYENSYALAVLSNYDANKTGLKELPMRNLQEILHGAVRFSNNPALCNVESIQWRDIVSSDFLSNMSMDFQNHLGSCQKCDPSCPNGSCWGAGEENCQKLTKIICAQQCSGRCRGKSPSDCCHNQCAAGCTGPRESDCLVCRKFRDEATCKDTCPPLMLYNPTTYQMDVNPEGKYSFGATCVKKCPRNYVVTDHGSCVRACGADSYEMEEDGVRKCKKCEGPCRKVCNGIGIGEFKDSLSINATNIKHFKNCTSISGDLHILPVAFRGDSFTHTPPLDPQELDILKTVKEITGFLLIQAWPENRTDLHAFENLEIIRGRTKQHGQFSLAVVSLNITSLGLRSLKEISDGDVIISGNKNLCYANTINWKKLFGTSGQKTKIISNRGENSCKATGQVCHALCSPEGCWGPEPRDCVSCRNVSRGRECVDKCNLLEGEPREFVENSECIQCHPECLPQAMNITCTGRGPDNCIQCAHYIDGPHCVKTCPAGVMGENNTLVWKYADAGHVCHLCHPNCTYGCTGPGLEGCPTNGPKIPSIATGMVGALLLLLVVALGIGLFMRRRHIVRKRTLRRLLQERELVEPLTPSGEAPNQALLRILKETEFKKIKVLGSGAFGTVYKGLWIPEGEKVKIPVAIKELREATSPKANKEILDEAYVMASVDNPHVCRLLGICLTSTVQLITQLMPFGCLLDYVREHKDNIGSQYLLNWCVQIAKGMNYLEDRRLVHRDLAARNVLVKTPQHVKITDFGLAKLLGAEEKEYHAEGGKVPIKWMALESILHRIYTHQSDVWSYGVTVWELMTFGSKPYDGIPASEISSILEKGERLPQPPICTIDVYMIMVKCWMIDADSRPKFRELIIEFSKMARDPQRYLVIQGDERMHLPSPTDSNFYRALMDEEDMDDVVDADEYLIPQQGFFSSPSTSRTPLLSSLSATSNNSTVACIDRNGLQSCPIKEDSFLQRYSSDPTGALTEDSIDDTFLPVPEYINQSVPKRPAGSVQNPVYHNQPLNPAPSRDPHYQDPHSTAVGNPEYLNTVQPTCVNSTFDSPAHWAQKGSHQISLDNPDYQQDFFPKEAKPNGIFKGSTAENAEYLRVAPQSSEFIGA
# PDGFRβ Tyrosine kinase = PDGFRβ Tyrosine kinase (Homo sapiens, UniProt P09619); test: Kinase selectivity: PDGFRβ Tyrosine kinase; type: biochemical; conditions: 50 μM concentration
# Sequence of PDGFRβ Tyrosine kinase (P09619 33-1106): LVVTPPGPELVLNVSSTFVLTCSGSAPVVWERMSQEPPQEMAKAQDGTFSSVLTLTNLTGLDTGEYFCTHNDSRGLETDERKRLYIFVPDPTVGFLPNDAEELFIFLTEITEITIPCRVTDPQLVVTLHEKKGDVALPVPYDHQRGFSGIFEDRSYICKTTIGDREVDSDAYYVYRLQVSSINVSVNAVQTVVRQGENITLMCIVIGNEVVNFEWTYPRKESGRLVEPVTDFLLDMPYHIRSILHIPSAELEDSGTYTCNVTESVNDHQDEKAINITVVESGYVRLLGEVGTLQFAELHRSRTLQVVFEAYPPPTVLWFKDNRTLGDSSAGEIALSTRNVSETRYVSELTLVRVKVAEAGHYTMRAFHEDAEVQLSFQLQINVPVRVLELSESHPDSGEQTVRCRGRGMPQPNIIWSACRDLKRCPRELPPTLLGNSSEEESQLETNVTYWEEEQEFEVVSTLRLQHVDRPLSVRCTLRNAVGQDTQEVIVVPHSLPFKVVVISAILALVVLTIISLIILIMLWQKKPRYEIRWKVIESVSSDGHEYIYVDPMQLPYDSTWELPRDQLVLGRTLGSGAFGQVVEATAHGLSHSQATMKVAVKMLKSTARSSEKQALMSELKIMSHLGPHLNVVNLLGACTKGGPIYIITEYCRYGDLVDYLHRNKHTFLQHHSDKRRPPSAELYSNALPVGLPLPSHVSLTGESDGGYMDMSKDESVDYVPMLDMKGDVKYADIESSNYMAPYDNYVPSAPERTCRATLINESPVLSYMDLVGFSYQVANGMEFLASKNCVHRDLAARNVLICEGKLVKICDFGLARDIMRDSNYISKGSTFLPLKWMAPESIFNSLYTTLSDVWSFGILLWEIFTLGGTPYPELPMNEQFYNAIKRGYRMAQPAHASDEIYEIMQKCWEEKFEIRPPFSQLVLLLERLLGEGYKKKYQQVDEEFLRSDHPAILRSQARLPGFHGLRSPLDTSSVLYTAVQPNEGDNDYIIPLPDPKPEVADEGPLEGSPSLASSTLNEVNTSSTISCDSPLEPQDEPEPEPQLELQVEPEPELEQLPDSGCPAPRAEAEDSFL
# v-Src = v-Src (Rous sarcoma virus (strain Schmidt-Ruppin A), UniProt P00524); test: Kinase selectivity: v-Src; type: biochemical; conditions: 50 μM concentration
# Sequence of v-Src (P00524 2-526): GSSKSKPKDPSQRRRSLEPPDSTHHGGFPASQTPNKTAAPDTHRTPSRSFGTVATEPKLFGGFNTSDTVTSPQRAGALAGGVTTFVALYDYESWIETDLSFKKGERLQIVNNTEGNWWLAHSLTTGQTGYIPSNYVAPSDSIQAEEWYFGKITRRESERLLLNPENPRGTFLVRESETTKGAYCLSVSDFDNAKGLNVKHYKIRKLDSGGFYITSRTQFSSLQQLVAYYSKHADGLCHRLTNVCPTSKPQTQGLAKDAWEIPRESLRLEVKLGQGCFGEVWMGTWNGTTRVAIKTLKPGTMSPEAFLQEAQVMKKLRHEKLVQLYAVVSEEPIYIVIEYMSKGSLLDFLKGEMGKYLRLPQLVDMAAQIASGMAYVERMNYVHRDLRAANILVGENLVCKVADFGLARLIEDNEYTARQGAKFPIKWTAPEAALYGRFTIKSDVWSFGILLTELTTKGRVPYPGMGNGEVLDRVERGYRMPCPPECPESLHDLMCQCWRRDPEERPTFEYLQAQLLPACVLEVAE
# [8] = target: E. coli histidine kinase NRII (Escherichia coli, UniProt P0AFB5); test: Kinase selectivity: E. coli histidine kinase NRII; type: biochemical; conditions: 50 μM concentration
# Sequence of E. coli histidine kinase NRII (P0AFB5 whole entry): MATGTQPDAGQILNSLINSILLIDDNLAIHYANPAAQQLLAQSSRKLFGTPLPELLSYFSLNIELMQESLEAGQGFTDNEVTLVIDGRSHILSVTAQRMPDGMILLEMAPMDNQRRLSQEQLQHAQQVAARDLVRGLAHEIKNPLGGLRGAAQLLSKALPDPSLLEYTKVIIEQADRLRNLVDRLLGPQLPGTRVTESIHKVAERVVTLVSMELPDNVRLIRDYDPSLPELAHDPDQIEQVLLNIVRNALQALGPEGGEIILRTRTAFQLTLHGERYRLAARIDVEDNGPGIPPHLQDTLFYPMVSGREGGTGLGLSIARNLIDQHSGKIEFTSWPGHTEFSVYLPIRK
# EGFR/Swiss 3T3 [9] = test: Growth in soft-agar, EGFR/Swiss 3T3; type: cell-based; conditions: EGFR/Swiss 3T3, anchorage independent (soft agar clonogenicity)
# Description: as §1
# MEK [10] = target: T1, MEK (Homo sapiens, UniProt Q02750); type: biochemical
# T1 sequence (Q02750 whole entry): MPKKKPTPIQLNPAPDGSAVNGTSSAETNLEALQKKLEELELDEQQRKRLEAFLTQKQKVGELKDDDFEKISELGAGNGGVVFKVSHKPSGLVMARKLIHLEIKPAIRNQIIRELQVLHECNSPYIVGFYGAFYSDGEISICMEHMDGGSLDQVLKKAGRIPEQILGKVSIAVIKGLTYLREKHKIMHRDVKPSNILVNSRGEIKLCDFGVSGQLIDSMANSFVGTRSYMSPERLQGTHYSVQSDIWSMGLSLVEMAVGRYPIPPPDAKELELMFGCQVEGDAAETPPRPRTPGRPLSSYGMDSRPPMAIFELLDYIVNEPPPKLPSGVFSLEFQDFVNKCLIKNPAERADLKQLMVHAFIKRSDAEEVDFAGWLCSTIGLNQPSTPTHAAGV
# v-Raf/3Y1 [11] = test: Growth in soft-agar, v-Raf/3Y1; type: cell-based; conditions: v-Raf/3Y1, anchorage independent (soft agar clonogenicity)
# Description: as §1
# v-Raf/3Y1 [12] = test: Monolayer growth, v-Raf/3Y1; type: cell-based; conditions: v-Raf/3Y1, anchorage dependent
# Description: as §2
# K562 [13] = test: Monolayer growth, K562; type: cell-based; conditions: Homo sapiens; K562, anchorage dependent
# Description: as §2
# MAP kinase [14] = test: Whole cell MAP kinase assay, PC-12 cells stimulated with NGF; type: cell-based; conditions: Rattus norvegicus, read-out: IC50, activation of MAP kinase in whole cells
# Description: (§3) To determine if compounds were able to block activation of MAP kinase in whole cells, the following protocol was used: Cells were plated in multi-well plates and grown to confluence. Cells were then serum-deprived overnight. Cells were exposed to the desired concentrations of compound or vehicle (DMSO) for 30 minutes, followed by addition of a growth factor, e.g., PDGF (100 ng/mL). After a 5-minute treatment with the growth factor, cells were washed with PBS, then lysed in a buffer consisting of 70 mM NaCl, 10 mM HEPES (pH 7.4), 50 mM glycerol phosphate, and 1% Triton X-100. Lysates were clarified by centrifugation at 13,000×g for 10 minutes. Five micrograms of the resulting supernatants were incubated with 10 μg microtubule associated protein-2 (Map2) for 15 minutes at 30° C. in a final volume of 25 μL containing 50 mM Tris (pH 7.4), 10 mM MgCl2, 2 mM EGTA and 30 μM [γ-^32 P]ATP. Reactions were terminated by addition of Laemmli sample buffer. Phosphorylated Map2 was resolved on 7.5% acrylamide gels and incorporated radioactivity determined by autoradiography and subsequent excision of the bands followed by scintillation counting.
# RAF = RAF (Homo sapiens, UniProt P04049); test: Kinase selectivity: RAF; type: biochemical; conditions: 50 μM concentration
# Sequence of RAF (P04049 whole entry): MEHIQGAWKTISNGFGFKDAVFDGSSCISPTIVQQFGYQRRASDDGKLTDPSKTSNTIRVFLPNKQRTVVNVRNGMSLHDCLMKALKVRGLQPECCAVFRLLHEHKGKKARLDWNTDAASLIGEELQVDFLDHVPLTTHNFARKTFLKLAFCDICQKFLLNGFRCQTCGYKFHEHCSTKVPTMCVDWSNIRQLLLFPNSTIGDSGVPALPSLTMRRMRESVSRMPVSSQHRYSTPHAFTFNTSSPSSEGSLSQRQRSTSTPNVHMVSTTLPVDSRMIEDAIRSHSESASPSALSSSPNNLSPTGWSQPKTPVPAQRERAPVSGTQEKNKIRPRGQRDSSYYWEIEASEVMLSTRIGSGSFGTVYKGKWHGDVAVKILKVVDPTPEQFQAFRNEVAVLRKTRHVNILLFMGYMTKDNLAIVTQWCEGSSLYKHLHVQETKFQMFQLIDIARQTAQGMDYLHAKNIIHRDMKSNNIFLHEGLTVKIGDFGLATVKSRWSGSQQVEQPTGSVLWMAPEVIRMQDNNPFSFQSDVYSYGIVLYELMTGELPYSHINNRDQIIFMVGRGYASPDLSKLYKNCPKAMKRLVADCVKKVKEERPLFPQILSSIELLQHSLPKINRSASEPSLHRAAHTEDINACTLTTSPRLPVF
# PI-3 kinase = test: Kinase selectivity: PI-3 kinase; type: biochemical; conditions: 50 μM concentration
# 3T3-L1 adipocyte cells [15] = test: Insulin stimulated uptake of radiolabeled 2-deoxyglucose; type: cell-based, murine; conditions: 10 μM concentration
# MAP kinase [16] = test: In vitro MAP kinase assay; type: biochemical; conditions: 50 μM concentration
# Description: Inhibitory activity was also confirmed in direct assays. For MAP kinase, 1 μg GST-MAPK was incubated with 40 μg MBP for 15 minutes at 30° C. in a final volume of 50 μL containing 50 mM Tris (pH 7.5), 10 μM MgCl2, 2 μM EGTA, and 10 μM [γ-^32 P]ATP. The reaction was stopped by addition of Laemmli SDS sample buffer and phosphorylated MBP resolved by electrophoresis on a 10% polyacrylamide gel. Radioactivity incorporated into MBP was determined by autoradiography, and subsequently by excision of the bands followed by scintillation counting.
# 3T3-L1 adipocyte cells [17] = test: Insulin-stimulated synthesis of glycogen; type: cell-based, murine; conditions: 10 μM concentration
# Balb 3T3 = test: 3H-Thymidine incorporation, PDGF-stimulated, Balb 3T3; type: cell-based; conditions: Mus musculus; Balb 3T3, PDGF-stimulated
# Description: (§4) Cells were plated in multi-well plates and grown to near confluence. The media was then removed and replaced with growth media containing 1% bovine serum albumin. After 24-hour serum starvation, compounds and specific growth factors were added and incubations continued for an additional 24 hours. During the final 2 hours, 3H-thymidine was added to the medium. To terminate the incubations, the medium was removed and cell layers washed twice with ice-cold phosphate-buffered saline. After the final wash, ice-cold 5% trichloroacetic acid was added and the cells incubated for 15 minutes at room temperature. The trichloro-acetic acid solution was then removed and the cell layer washed three times with distilled water. After the final wash, the cell layer was solubilized by addition of 2% sodium dodecylsulfate. Radioactivity in this solution was determined by scintillation counting.
# K-Ras/NRK [18] = test: Monolayer growth, K-Ras/NRK; type: cell-based; conditions: anchorage dependent
# Description: as §2
# MEK [19] = target: T1, MEK; type: biochemical; conditions: order of addition experiments
# Description: Incorporation of ^32 P into myelin basic protein (MBP) was assayed in the presence of a glutathione S-transferase fusion protein containing p44MAP kinase (GST-MAPK) and a glutathione S-transferase fusion protein containing p45MEK (GST-MEK). […] Compounds were assessed at 10 μM for ability to inhibit incorporation of ^32 P.
# To ascertain whether compounds were inhibiting GST-MEK or GST MAPK, two additional protocols were employed. In the first protocol, compounds were added to tubes containing GST-MEK, followed by addition of GST-MAPK, MBP and [γ-^32 P]ATP. In the second protocol, compounds were added to tubes containing both GST-MEK and GST-MAPK, followed by MBP and [γ-^32 P]ATP.
# K-Ras/Balb [20] = test: Growth in soft-agar, K-Ras/Balb; type: cell-based; conditions: Mus musculus, anchorage independent (soft agar clonogenicity)
# Description: as §1
# K-Ras/Balb [21] = test: Monolayer growth, K-Ras/Balb; type: cell-based; conditions: Mus musculus, anchorage dependent
# Description: as §2
# MAP kinase [22] = test: Whole cell MAP kinase assay, 3T3-L1 cells stimulated with insulin; type: cell-based, murine
# Description: as §3, with “Cells” for “To determine if compounds were able to block activation of MAP kinase in whole cells, the following protocol was used: Cells were plated in multi-well plates and grown to confluence. Cells”, “buffer.” for “buffer. Phosphorylated Map2 was resolved on 7.5% acrylamide gels and incorporated radioactivity determined by autoradiography and subsequent excision of the bands followed by scintillation counting.”
# EGFR/Swiss 3T3 [23] = test: Monolayer growth, EGFR/Swiss 3T3; type: cell-based; conditions: EGFR/Swiss 3T3, anchorage dependent
# Description: as §2
# K-Balb 3T3 = test: 3H-Thymidine incorporation, PDGF-stimulated, K-Balb 3T3; type: cell-based; conditions: K-Balb 3T3, PDGF-stimulated
# Description: as §4
smiles,measurement,setting,value
"COc1cccc(-c2cc(=O)c3ccccc3o2)c1N [invention compound, 2-(2-amino-3-methoxyphenyl)-4-oxo-4H-[1]benzopyran]",effect on insulin-stimulated synthesis of lipid,3T3-L1 adipocyte cells [1],does not affect
same,effect on insulin-stimulated synthesis of lipid,3T3-L1 adipocyte cells [1]; listed as compound,no effect
same,inhibition of Protein kinase C,[2],does not appreciably inhibit
same,IC50,K562 [3],60 µM
same,IC50,RSV/RAT-1 [4],60 µM
same,IC50,K-Ras/NRK [5],2 µM
same,IC50,RSV/RAT-1 [6],> 100 µM
same,inhibition of NGFR (trk-A) Tyrosine kinase,[7],does not appreciably inhibit
same,inhibition of EGFR Tyrosine kinase,EGFR Tyrosine kinase,does not appreciably inhibit
same,inhibition of PDGFRβ Tyrosine kinase,PDGFRβ Tyrosine kinase,does not appreciably inhibit
same,inhibition of v-Src,v-Src,does not appreciably inhibit
same,inhibition of E. coli histidine kinase NRII,[8],does not appreciably inhibit
same,IC50,EGFR/Swiss 3T3 [9],> 100 µM
same,competition with ATP (kinetic analysis),MEK [10],not competitive with ATP
same,IC50,v-Raf/3Y1 [11],4.5 µM
same,IC50,v-Raf/3Y1 [12],50 µM
same,IC50,K562 [13],> 100 µM
same,IC50,MAP kinase [14],7 µM
same,inhibition of RAF,RAF,does not appreciably inhibit
same,inhibition of PI-3 kinase,PI-3 kinase,does not appreciably inhibit
same,effect on insulin stimulated uptake of radiolabeled 2-deoxyglucose,3T3-L1 adipocyte cells [15],does not affect
same,effect on insulin stimulated uptake of radiolabeled 2-deoxyglucose,3T3-L1 adipocyte cells [15]; listed as compound,no effect
same,inhibition of MAP kinase,MAP kinase [16],does not appreciably inhibit
same,effect on insulin-stimulated synthesis of glycogen,3T3-L1 adipocyte cells [17],does not affect
same,effect on insulin-stimulated synthesis of glycogen,3T3-L1 adipocyte cells [17]; listed as compound,no effect
same,IC50,Balb 3T3,8 µM
same,IC50,K-Ras/NRK [18],40 µM
same,enzyme inhibited in the cascade (MEK or MAP kinase),MEK [19],inhibiting MEK and not MAP kinase
same,IC50,K-Ras/Balb [20],1.5 µM
same,IC50,K-Ras/Balb [21],25 µM
same,IC50,"MAP kinase [22]; Mus musculus, 3T3-L1 cells stimulated with insulin, read-out: IC50, activation of MAP kinase in whole cells",3 µM
same,activation of insulin stimulated MAP kinase,"MAP kinase [22]; murine 3T3-L1 adipocytes, insulin",does inhibit
same,IC50,EGFR/Swiss 3T3 [23],> 100 µM
same,IC50,K-Balb 3T3,10 µM
